Measurements as given in ChEMBL document CHEMBL5360617, “C-2 Thiophenyl Tryptophan Trimers Inhibit Cellular Entry of SARS-CoV-2 through Interaction with the Viral Spike (S) Protein” (J Med Chem, 2023).

What was measured:
SARS-CoV-2 [1] = assay: (§1) Antiviral activity VSV-S pseudotyped SARS-CoV-2 Wuhan-Hu-1 harboring MN908947 mutant infected in Green monkey VeroE6/TMPRSS2 cells assessed as reduction in viral production at 10 uM preincubated with virus for 1 hrs followed by cell infection for 1 hrs and measured 24 hrs after replacement with fresh media with compound relative to control; format: functional, Severe acute respiratory syndrome coronavirus 2; parameters: scale not given: the % may be the effect or the level left; settings: time 26 hrs
SARS-CoV-2 [2] = assay: as §1, with “human A549-ACE2” for “Green monkey VeroE6/TMPRSS2”; format: functional, Severe acute respiratory syndrome coronavirus 2; parameters: scale not given: the % may be the effect or the level left; settings: time 26 hrs

Structure (SMILES) | Activity (SARS-CoV-2 [1]) | Activity (SARS-CoV-2 [2])
CCC(CC)COC(=O)[C@H](C)N[P@](=O)(OC[C@H]1O[C@@](C#N)(c2ccc3c(N)ncnn23)[C@H](O)[C@@H]1O)Oc1ccccc1 | >89% | >98%
NCCOCCOCCC(=O)NCC(=O)NC(CCC(=O)NC(Cc1c(Sc2ccc([N+](=O)[O-])cc2)[nH]c2ccccc12)C(=O)O)(CCC(=O)NC(Cc1c(Sc2ccc([N+](=O)[O-])cc2)[nH]c2ccccc12)C(=O)O)CCC(=O)NC(Cc1c(Sc2ccc([N+](=O)[O-])cc2)[nH]c2ccccc12)C(=O)O (stereo unspecified) | >89% | >98%
O=C(CCOCCOCCOCCOCCC(=O)NCC(=O)NC(CCC(=O)NC(Cc1c(Sc2ccc([N+](=O)[O-])cc2)[nH]c2ccccc12)C(=O)O)(CCC(=O)NC(Cc1c(Sc2ccc([N+](=O)[O-])cc2)[nH]c2ccccc12)C(=O)O)CCC(=O)NC(Cc1c(Sc2ccc([N+](=O)[O-])cc2)[nH]c2ccccc12)C(=O)O)NCC(=O)NC(CCC(=O)NC(Cc1c(Sc2ccc([N+](=O)[O-])cc2)[nH]c2ccccc12)C(=O)O)(CCC(=O)NC(Cc1c(Sc2ccc([N+](=O)[O-])cc2)[nH]c2ccccc12)C(=O)O)CCC(=O)NC(Cc1c(Sc2ccc([N+](=O)[O-])cc2)[nH]c2ccccc12)C(=O)O (stereo unspecified) | >89% | >98%
